{
  "source": "patent EP0604248A1",
  "about": "“Use of 5-methoxypsoralen for the treatment of AIDS” (Goupil, Jean-Jacques, priority 1992, dated 1994)",
  "key": {"VIH-1 [1]": {"tested_on": "VIH-1", "assay": "Residual infectivity of treated HIV-1 on MT4 cells (cytopathic effect, p25 antigen, reverse transcriptase activity)", "type": "cell-based", "details": "Human immunodeficiency virus 1, light or radiation study", "experimental": "(§1) Cette étude a été réalisée en 2 étapes : • traitements du virus VIH-1 (ou HIV-1) par le 5-méthoxypsoralène (5-MOP) et les UVA. • étude de l'infectivité résiduelle des échantillons traités à l'aide des tests sur cellules MT4 et sur lymphocytes activés.\n(§2) Le virus a été traité par 10 µg/ml de 5-MOP, puis exposé aux UVA (1 à 2 Joules/cm²) de la façon suivante: • 4 ml de virus VIH-1 ont été traités avec 40 µl de 5-MOP à 1 mg/ml puis exposés aux UVA (intensité de 1,5 mW/cm²) pendant 17 minutes (échantillon PUV 10), • l'irradiation aux UVA a été faite avec la lampe PUVA 200 WALDMANN en déposant les flacons contenant le virus sur un lit de glace, afin d'éviter au maximum l'échauffement.\nLes témoins pour cette expérience ont été les suivants : • le virus VIH-1 utilisé, non traité (échantillon PUV 1), • 4 ml du virus utilisé, traité uniquement par 40 µl de DMSO, afin de vérifier une éventuelle toxicité due au DMSO (échantillon PUV 2), • le virus utilisé, traité avec 10 µg/ml de 5-MOP, mais sans irradiation UVA (échantillon PUV 6), • le virus utilisé, traité uniquement par irradiation UVA pendant 17 minutes à 1,5 mW/cm² (échantillon PUV 5), • le virus utilisé, sans traitement, gardé à la température de l'expérience, pendant toute la durée du traitement, afin de vérifier la perte d'infectivité due aux conditions de la manipulation (échantillon PUV 9). […]"}, "VIH-1 [2]": {"tested_on": "VIH-1", "assay": "Residual infectivity of treated HIV-1 on primary cultures of activated human lymphocytes (reverse transcriptase activity in supernatants, 28 days)", "type": "cell-based", "details": "for log reduction at 10 µg/mL: Human immunodeficiency virus 1, Lymphocyte, light or radiation study", "experimental": "as §1, §2\nLes témoins pour cette expérience ont été les suivants : • le virus VIH-1 utilisé, non traité (échantillon PUV 1), • 4 ml du virus utilisé, traité uniquement par 40 µl de DMSO, afin de vérifier une éventuelle toxicité due au DMSO (échantillon PUV 2), • le virus utilisé, traité avec 10 µg/ml de 5-MOP, mais sans irradiation UVA (échantillon PUV 6), • le virus utilisé, traité uniquement par irradiation UVA pendant 17 minutes à 1,5 mW/cm² (échantillon PUV 5), • le virus utilisé, sans traitement, gardé à la température de l'expérience, pendant toute la durée du traitement, afin de vérifier la perte d'infectivité due aux conditions de la manipulation (échantillon PUV 9).\n• a - Sur cellules MT4 : Des dilutions successives de chaque échantillon ont été testées en duplicata. 100 µl de chaque dilution ont été mis en contact 1 heure à 37°C avec 3.10⁵ cellules MT4 par puits de plaque COSTAR 24 puits. Les cellules ont été centrifugées afin d'éliminer le produit éventuellement toxique, puis resuspendues dans 1 ml du milieu de culture. Aux jours 3 et 6, 750 µl de surnageant ont été ôtés, remplacés par du milieu de culture frais et la concentration cellulaire ajustée à 3.10⁵ cellules par millilitre. Au jour 10, l'effet cytopathogène et la mortalité cellulaire ont été évalués par observation au microscope après coloration au bleu Trypan. Des dosages de l'activité transcriptase inverse ont été réalisés à partir des surnageants de culture conservés à chaque passage (jours 3, 6 et 10). • b - Sur lymphocytes humains activés : Un culot de 3.10⁶ lymphocytes préalablement stimulés à la PHA a été incubé avec 1 ml de chaque échantillon (de 10⁻¹ à 10⁻⁵ pour chaque échantillon, sauf pour l'échantillon PUV10 testé également non dilué) pendant 1 heure à 37°C. Puis les cellules ont été centrifugées et resuspendues à 10⁶ cellules par millilitre dans du milieu complet. Tous les 3 ou 4 jours, les cellules ont été comptées, réensemencées à 10⁶ cellules/ml et les surnageants conservés à -80°C. […]"}},
  "data": [
    {"compound": "COc1c2ccoc2cc2oc(=O)ccc12", "note": "[5-MOP, 5-méthoxypsoralène]", "values": [
      {"measurement": "log reduction at 10 µg/mL", "setting": "VIH-1 [1]; 5-MOP seul à 10 µg/ml, no UVA (sample PUV6), versus control PUV9, read-out: perte d'infectivité", "value": 0.5},
      {"measurement": "log reduction at 10 µg/mL", "setting": "VIH-1 [1]; 5-MOP à 10 µg/ml et UVA (sample PUV10), versus control PUV9, read-out: réduction du titre infectieux", "value": 2.5},
      {"measurement": "réduction du pouvoir infectieux du virus", "setting": "VIH-1 [2]; 5-MOP seul, no UVA (control treatment), overall conclusion", "value": "sans effet"},
      {"measurement": "titre", "setting": "VIH-1 [2]; 5-MOP à 10 µg/ml et UVA (sample PUV10), activated human lymphocytes (PBL)", "value": 100, "unit": "UI/ml"},
      {"measurement": "log reduction at 10 µg/mL", "setting": "VIH-1 [2]; 5-MOP à 10 µg/ml et UVA (sample PUV10, tested undiluted), activated human lymphocytes (PBL), read-out: inactivation virale", "value": 3},
      {"measurement": "log reduction at 10 µg/mL", "setting": "VIH-1 [2]; 5-MOP à 10 µg/ml et UVA, overall conclusion, read-out: réduction du pouvoir infectieux du virus", "value": "~3"}
    ]}
  ]
}
